This assay concerns the target T1, hM4 receptor (Homo sapiens, UniProt P08173).
T1 construct: host or cells: CHO-K1, additionally stably transfected with Gqi5
T1 sequence (P08173 1-479): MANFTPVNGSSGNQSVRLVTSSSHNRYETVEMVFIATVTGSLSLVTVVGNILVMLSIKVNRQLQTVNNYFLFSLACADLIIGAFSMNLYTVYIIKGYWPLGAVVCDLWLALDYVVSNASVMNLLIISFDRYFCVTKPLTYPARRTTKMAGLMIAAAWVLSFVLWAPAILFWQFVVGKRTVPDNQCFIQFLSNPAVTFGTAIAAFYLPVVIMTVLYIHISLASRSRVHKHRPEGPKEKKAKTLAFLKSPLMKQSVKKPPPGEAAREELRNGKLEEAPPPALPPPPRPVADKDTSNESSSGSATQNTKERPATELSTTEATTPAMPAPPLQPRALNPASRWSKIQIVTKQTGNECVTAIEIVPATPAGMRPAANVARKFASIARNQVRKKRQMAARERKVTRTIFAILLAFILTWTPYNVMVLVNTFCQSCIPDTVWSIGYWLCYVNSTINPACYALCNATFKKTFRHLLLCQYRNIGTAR
As to the kind of experiment: Calcium mobilization assay, CHO-K1 cells stably expressing hM4-Gqi5. It counts as cell-based. From the text:
Chinese hamster ovary (CHO-K1) cells stably expressing rat (r)M1 were purchased from the American Type Culture Collection and cultured according to their indicated protocol. CHO cells stably expressing human (h)M2, hM3, and hM5 were described previously (Levey et al., 1991); hM1 and hM4 cDNAs were purchased from Missouri S&T cDNA Resource; rM4 cDNA was provided by T. I. Bonner (National Institutes of Health, Bethesda, Md.). hM1, hM4, and rM4 cDNAs were used to stably transfect CHO-K1 cells purchased from the American Type Culture Collection using Lipofectamine2000. […]
For low throughput measurement of agonist-evoked increases in intracellular calcium, CHO-K1 cells stably expressing muscarinic receptors were plated in 100 μL of growth medium at 5×10^4 (rM1, hM3, and hM5) or 6×10^4 cells per well (rM1 Y381A, hM2, and rM4) in Costar 96-well black-walled, tissue culture (TC)-treated, clear-bottom plates (Fisher). […] For calcium fluorescence measurements, CRCs of compounds (50 μl, 2×) were added 19 s after the beginning of data collection via a Flexstation II (Molecular Devices, Sunnyvale, Calif.). Fluorescence imaging continued for a total of 130 s acquisition time using an excitation wavelength of 488 nm, an emission wavelength of 525 nm, and a cutoff wavelength of 515 nm. […]

Take `CCOC(=O)N1[C@@H]2CC[C@H]1C[C@H](NCCNC(=O)c1ccccc1)C2` [Example 26, ethyl 3-((3-exo)-(2-benzamidoethyl)amino)-8-azabicyclo[3.2.1]octane-8-carboxylate]: the EC50 was more than 10 µM.
`CCOC(=O)N1[C@@H]2CC[C@H]1C[C@@H](NCCNC(=O)c1ccccc1)C2` [Example 27, ethyl 3-((3-endo)-(2-benzamidoethyl)amino)-8-azabicyclo[3.2.1]octane-8-carboxylate]: the EC50 is approximately 3 µM.

(Values after patent publication US8697691B2, “Alkyl 3-((2-amidoethyl)amino)-8-azabicyclo[3.2.1]octane-8-carboxylate analogs as selective M1 agonists and methods of making and using same” (Vanderbilt University, priority 2009, dated 2014).)
